Legend:
JAK2 = JAK2 (Homo sapiens (Human), UniProt O60674); assay: Biochemical JAK kinase assay (LanthaScreen), JAK2
Method: (§1) Assay 1: Biochemical JAK Kinase Assays
(§2) A panel of four LanthaScreen JAK biochemical assays (JAK1, 2, 3 and Tyk2) were carried in a common kinase reaction buffer (50 mM HEPES, pH 7.5, 0.01% Brij-35, 10 mM MgCl2, and 1 mM EGTA). Recombinant GST-tagged JAK enzymes and a GFP-tagged STAT1 peptide substrate were obtained from Life Technologies.
(§3) Serially diluted compounds were pre-incubated with each of the four JAK enzymes and the substrate in white 384-well microplates (Corning) at ambient temperature for 1 h. ATP was subsequently added to initiate the kinase reactions in 10 μL total volume, with 1% DMSO. […] Kinase reactions were allowed to proceed for 1 hour at ambient temperature before a 10 μL preparation of EDTA (10 mM final concentration) and Tb-anti-pSTAT1 (pTyr701) antibody (Life Technologies, 2 nM final concentration) in TR-FRET dilution buffer (Life Technologies) was added. The plates were allowed to incubate at ambient temperature for 1 h before being read on the EnVision reader (Perkin Elmer). Emission ratio signals (520 nm/495 nm) were recorded and utilized to calculate the percent inhibition values based on DMSO and background controls.
(§4) For dose-response analysis, percent inhibition data were plotted vs. compound concentrations, and IC50 values were determined from a 4-parameter robust fit model with the Prism software (GraphPad Software). Results were expressed as pIC50 (negative logarithm of IC50) and subsequently converted to pKi (negative logarithm of dissociation constant, Ki) using the Cheng-Prusoff equation.

Lung S9 metabolism = format: in vitro ADME, human; conditions: for Compound Remaining at 60 min (%) / microsomal CLint at 1 µM: human lung S9, 1 μM compound, 1 mg/mL S9 protein, NADPH and PAPS; for microsomal CLint at 1 µM: lung S9 fraction, pH 7.4, read-out: Clearance; for Sulfate Appearance: qualitative, O-sulfate metabolite peak in human lung S9
Method: Assay 5: Lung S9 Metabolism […] Lung S9 fractions from human (lot 1410245) were purchased from XenoTech LLC (Lenexa, Kans.). NADPH (Sigma Aldrich, N1630) and 3-phosphoadenosine 5-phosphosulfate (PAPS) (Sigma Aldrich, A1651) were purchased from Sigma Aldrich (St. Louis, Mo.). Acetonitrile and water were obtained from VWR (Radnor, Pa.) and were of HPLC grade or better. Raloxifene and formic acid was purchased from Sigma Aldrich (St. Louis, Mo.). Lung S9 incubations were performed in a water bath at 37° C. in a 96-well polypropylene plate. […] All samples were centrifuged at 2250 g for 10 minutes at 5° C. Supernatant (50 μL) was taken from the centrifuged samples and diluted into 100 μL HPLC water containing internal standard. […] Mobile Phase A consisted of Water+0.2% formic acid and Mobile Phase B consisted of acetonitrile+0.2% formic acid. Peak integration was accomplished using Gubbs GMSU software (Gubbs Inc., Alpharetta, Ga.). For each sample, peak area ratios were calculated by dividing the analyte peak area by the internal standard peak area. […] Determination of sulfate metabolite formation was made qualitatively by observation of early-eluting peak in the parent ion channel which, based on historical internal data, corresponded to the O-sulfate metabolite of each parent compound.

Tyk2 = Tyk2 (Homo sapiens (Human), UniProt P29597); assay: Biochemical JAK kinase assay (LanthaScreen), Tyk2
Sequence of Tyk2 (P29597 whole entry): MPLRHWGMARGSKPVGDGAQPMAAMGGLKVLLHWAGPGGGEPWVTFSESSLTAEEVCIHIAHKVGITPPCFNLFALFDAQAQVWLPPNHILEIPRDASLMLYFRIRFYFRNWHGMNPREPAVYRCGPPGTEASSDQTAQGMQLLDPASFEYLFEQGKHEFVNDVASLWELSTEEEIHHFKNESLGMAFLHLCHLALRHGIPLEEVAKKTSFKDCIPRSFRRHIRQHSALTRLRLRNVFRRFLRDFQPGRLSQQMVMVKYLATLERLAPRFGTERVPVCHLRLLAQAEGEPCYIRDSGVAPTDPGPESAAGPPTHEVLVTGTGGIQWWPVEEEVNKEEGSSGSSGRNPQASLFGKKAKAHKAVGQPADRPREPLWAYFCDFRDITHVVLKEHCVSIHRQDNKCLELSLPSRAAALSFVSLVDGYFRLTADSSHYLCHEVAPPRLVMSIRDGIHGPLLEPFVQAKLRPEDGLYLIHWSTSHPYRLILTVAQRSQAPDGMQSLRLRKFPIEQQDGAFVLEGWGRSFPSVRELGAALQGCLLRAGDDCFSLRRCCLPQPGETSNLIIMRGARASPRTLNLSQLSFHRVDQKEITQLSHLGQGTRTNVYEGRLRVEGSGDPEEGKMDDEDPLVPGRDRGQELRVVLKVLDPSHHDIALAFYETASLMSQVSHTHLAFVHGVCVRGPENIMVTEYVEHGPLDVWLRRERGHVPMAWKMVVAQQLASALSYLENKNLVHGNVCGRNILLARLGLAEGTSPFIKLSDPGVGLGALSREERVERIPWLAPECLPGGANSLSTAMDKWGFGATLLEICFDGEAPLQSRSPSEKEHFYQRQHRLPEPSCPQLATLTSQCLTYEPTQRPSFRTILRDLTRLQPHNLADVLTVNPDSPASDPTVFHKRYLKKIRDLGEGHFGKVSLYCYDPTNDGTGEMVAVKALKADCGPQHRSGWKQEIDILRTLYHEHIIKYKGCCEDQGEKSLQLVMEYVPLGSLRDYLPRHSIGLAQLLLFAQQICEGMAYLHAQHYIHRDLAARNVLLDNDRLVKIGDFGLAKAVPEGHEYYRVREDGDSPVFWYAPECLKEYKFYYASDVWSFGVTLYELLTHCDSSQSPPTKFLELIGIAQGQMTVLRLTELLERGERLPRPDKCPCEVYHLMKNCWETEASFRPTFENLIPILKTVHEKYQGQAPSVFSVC
Method: as §1, §2, §3, §4

[1] = tested on: TSLP-evoked TARC release in human peripheral blood mononuclear cells; assay: Inhibition of TSLP-evoked TARC release in human peripheral blood mononuclear cells; format: cell-based; conditions: PBMC from 3 to 5 donors, TSLP 10 ng/mL, 48 hours, TARC ELISA, read-out: pIC50 ± st. dev., inhibition of TSLP-evoked TARC release (converted)
Source text: Assay 4: Inhibition of TSLP-Evoked TARC Release in Human Peripheral Blood Mononuclear Cells
Thymic stromal lymphopoietin (TSLP) and thymus and activation-regulated chemokine (TARC) are overexpressed in asthmatic airways, and correlate with disease severity. In the lungs, TSLP may be released by bronchial epithelial cells in response to allergens and viral infections. TSLP signals through an IL-7Rα/TSLPR heterodimer found in a broad range of tissues and cell types, including epithelial cells, endothelial cells, neutrophils, macrophages, and mast cells. The binding of TSLP to its receptor induces a conformational change that activates JAK1 and JAK2 to phosphorylate various transcription factors, including STAT3 and STAT5. In immune cells, this triggers a cascade of intracellular events that result in cell proliferation, anti-apoptosis, dendritic cell migration, and production of Th2 cytokines and chemokines. In peripheral blood mononuclear cells (PBMC), TSLP has a proinflammatory effect by activating myeloid dendritic cells to attract and stimulate T cells, a process mediated by the chemoattractant TARC.
The potencies of the test compounds were measured for inhibition of TARC release.
PBMC aliquots (previously isolated from whole blood and frozen in aliquots at −80° C.) from 3 to 5 donors were thawed at 37° C. and added dropwise to 40 mL pre-warmed, sterile-filtered, complete RPMI media in 50 mL Falcon tubes. Cells were pelleted and resuspended in complete media at 2.24×10^6 cells/mL. Cells were seeded at […] (190,000 cells) per well in a tissue culture treated 96-well flat bottom microplate. Cells were allowed to rest for 1 hour at 37° C. with 5% CO2.
Compounds were received as 10 mM stock solutions in DMSO. 3.7-fold serial dilutions were performed to generate 9 concentrations of test compound in DMSO at 300× the final assay test concentration. […] After the 1 hour rest period, 95 µL of 2× compound was added to each well of PBMC, for a final assay concentration range of 33.33 μM to […]. 95 μL of 0.2% DMSO in complete media was added to the untreated control wells. Cells were pre-treated with compound for 1 hour at 37° C. with 5% CO2 prior to stimulation.
Recombinant human TSLP protein was reconstituted at 10 μg/mL in sterile DPBS with 0.1% BSA and stored in aliquots at −20° C. Immediately prior to use, an aliquot was thawed and prepared at 20× the final assay concentration in complete media. 10 μL of 20×TSLP was added to each well of PBMC, for a final assay concentration of 10 ng/mL. 10 μL of complete media was added to the unstimulated control wells. Cells were stimulated in the presence of compound for 48 hours at 37° C. with 5% CO2.
Following stimulation, the cell culture supernatants were harvested and TARC levels were detected by enzyme-linked immunosorbent assay (ELISA), using Human CCL17/TARC Quantikine ELISA Kit (R&D Systems # DDN00) according to the manufacturer's instructions.
For dose response analysis, the log [test compound (M)] was plotted versus the percent response values for each donor, and IC50 values were determined using a nonlinear regression analysis with GraphPad Prism Software using the 4-parameter sigmoidal dose-response algorithm with variable slope. Data are expressed as mean pIC50 (negative decadic logarithm IC50) values calculated from pIC50 values of individual donors and rounded to one decimal place.

[2] = tested on: IL-2 stimulated STAT5 phosphorylation in Tall-1 human T cell line; assay: Inhibition of IL-2 stimulated pSTAT5 in Tall-1 T cells; format: cell-based; conditions: TALL-1, 0.5 h, IL-2 300 ng/mL, 30 min, pSTAT5 AlphaLisa, read-out: Tall-1 pIC50 (converted)
Method: Assay 2: Inhibition of IL-2 Stimulated pSTAT5 in Tall-1 T Cells
The potency of test compounds for inhibition of interleukin-2 (IL-2) stimulated STAT5 phosphorylation was measured in the Tall-1 human T cell line (DSMZ) using AlphaLisa.
Phosphorylated STAT5 was measured via the AlphaLISA SureFire Ultra pSTAT5 (Tyr694/699) kit (PerkinElmer).
Compounds were serially diluted in DMSO and dispensed acoustically to empty wells. Assay media (phenol red-free DMEM (Life Technologies) supplemented with 10% FBS (ATCC)) was dispensed (4 μL/well) and plates shaken at 900 rpm for 10 mins. Cells were seeded at 45,000 cells/well in assay media (4 μL/well), and incubated at 37° C., 5% CO2 for 1 hour, followed by the addition of IL-2 (R&D Systems; final concentration 300 ng/mL) in pre-warmed assay media (4 μL) for 30 minutes. […] The lysate was shaken at 900 rpm for 10 minutes at room temperature (RT). Phosphorylated STAT5 was measured via the pSTAT5 AlphaLisa kit (PerkinElmer). Freshly prepared acceptor bead mixture was dispensed onto lysate (5 μL) under green filtered <100 lux light. Plates were shaken at 900 rpm for 2 mins, briefly spun down, and incubated for 2 hrs at RT in the dark. Donor beads were dispensed (5 μL) under green filtered <100 lux light. Plates were shaken at 900 rpm for 2 minutes, briefly spun down, and incubated overnight at RT in the dark. Luminescence was measured with excitation at 689 nm and emission at 570 nm using an EnVision plate reader (PerkinElmer) under green filtered <100 lux light.
To determine the inhibitory potency of test compounds in response to IL-2, the average emission intensity of beads bound to pSTAT5 was measured in a human T cell line. IC50 values were determined from analysis of the inhibition curves of signal intensity versus compound concentration. Data are expressed as pIC50 (negative decadic logarithm IC50) values (mean±standard deviation).

JAK1 = JAK1 (Homo sapiens (Human), UniProt P23458); assay: Co-crystal structure with JAK1; conditions: resolution of 2.28 Å
Sequence of JAK1 (P23458 whole entry): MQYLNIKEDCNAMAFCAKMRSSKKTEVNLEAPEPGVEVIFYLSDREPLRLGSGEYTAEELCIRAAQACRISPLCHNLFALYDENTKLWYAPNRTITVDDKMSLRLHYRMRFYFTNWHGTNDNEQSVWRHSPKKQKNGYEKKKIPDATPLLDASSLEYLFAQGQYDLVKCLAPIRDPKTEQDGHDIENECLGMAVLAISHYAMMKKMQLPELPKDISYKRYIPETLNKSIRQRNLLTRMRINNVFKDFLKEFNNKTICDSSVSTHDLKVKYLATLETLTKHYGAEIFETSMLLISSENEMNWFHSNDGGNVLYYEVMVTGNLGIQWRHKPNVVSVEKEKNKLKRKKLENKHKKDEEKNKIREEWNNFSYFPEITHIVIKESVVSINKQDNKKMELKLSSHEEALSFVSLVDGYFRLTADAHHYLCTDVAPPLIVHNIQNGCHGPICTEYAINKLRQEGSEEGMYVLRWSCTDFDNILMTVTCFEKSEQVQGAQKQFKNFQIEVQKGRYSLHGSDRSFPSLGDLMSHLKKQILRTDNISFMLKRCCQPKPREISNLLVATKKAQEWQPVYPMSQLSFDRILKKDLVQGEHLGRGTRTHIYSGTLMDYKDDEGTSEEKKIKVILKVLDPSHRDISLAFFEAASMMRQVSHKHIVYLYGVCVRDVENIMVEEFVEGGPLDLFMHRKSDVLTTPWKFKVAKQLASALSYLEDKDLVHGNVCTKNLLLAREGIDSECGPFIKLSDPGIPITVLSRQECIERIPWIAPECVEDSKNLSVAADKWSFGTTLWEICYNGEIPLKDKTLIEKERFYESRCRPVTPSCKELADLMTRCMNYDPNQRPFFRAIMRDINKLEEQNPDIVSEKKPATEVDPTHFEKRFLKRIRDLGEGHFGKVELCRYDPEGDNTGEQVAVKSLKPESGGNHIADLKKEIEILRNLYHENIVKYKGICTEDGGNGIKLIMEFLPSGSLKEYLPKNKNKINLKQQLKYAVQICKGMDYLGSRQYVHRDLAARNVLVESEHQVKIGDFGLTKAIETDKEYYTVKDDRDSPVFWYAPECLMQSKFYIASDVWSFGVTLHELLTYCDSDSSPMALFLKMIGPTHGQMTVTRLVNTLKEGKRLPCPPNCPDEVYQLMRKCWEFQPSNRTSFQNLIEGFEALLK
Source text: A co-crystal structure was obtained of compound D-1 bound to human JAK1 at a resolution of 2.28 Å. […] Seven specific hydrogen bonding interactions were identified based upon a distance of 3.5 Å or less between donor and acceptor atoms. Of particular note, a hydrogen bonding interaction was identified between the carbonyl of the exocyclic amide of compound D-1 and the sidechain of Arg879 of JAK1. A similar interaction can be expected for the compounds of the invention.

Sequence of JAK2 (O60674 whole entry): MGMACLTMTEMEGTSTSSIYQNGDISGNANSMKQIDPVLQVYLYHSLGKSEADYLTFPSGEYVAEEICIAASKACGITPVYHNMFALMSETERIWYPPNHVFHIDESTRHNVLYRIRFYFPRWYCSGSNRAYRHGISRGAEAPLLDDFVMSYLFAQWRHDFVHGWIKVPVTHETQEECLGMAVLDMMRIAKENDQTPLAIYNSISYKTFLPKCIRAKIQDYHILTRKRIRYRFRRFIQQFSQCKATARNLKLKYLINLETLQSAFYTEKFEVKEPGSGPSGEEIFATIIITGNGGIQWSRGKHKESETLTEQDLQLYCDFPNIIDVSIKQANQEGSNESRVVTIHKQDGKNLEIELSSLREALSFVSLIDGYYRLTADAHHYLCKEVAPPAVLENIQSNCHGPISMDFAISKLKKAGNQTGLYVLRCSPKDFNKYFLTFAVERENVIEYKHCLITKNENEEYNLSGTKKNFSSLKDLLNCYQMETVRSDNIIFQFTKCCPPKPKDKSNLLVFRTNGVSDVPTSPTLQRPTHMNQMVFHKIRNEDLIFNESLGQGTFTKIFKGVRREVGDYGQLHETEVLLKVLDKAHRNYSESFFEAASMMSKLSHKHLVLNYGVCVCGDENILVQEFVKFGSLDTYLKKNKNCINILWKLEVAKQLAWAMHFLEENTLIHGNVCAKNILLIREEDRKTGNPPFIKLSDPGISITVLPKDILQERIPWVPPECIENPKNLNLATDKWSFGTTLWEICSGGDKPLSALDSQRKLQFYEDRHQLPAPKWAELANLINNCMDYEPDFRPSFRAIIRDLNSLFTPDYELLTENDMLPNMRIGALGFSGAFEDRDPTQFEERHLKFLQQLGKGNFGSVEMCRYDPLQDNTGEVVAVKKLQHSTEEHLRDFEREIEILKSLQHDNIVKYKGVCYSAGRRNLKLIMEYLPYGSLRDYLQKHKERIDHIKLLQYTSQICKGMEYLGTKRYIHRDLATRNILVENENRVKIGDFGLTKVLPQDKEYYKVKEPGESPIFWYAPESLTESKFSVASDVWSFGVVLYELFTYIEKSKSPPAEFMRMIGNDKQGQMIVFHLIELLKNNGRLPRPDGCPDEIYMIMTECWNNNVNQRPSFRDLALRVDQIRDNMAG

In the case of CCc1cc(O)ccc1-c1ccc2c(-c3nc4c([nH]3)CN(C)[C@H](C(=O)N3CCN(C)C[C@@H]3C)C4)n[nH]c2c1 [Compound 3, ((S)-2,4-dimethylpiperazin-1-yl)((S)-2-(6-(2-ethyl-4-hydroxyphenyl)-1H-indazol-3-yl)-5-methyl-4,5,6,7-tetrahydro-3H-imidazo[4,5-c]pyridin-6-yl)methanone], the “JAK2 pKi” value (JAK2) is reported as 10.4, the “Compound Remaining at 60 min (%)” value (Lung S9 metabolism) is reported as 86% and the microsomal CLint at 1 µM (Lung S9 metabolism) is reported as 2.6 µL/min/mg. For the same compound, the “Sulfate Appearance” value (Lung S9 metabolism) was “Yes” and the “Tyk2 pKi” value (Tyk2) was 9.3.
With CCc1cc(O)c(F)cc1-c1ccc2c(-c3nc4c([nH]3)CN(C(C)C)[C@H](C(=O)N3CC[C@H](N(C)C)C3)C4)n[nH]c2c1 [Compound C-6, reference compound] the IC50 [1] was 158 nM, the “Compound Remaining at 60 min (%)” value (Lung S9 metabolism) was 5% and the microsomal CLint at 1 µM (Lung S9 metabolism) was 51.4 µL/min/mg. The “Sulfate Appearance” value (Lung S9 metabolism) was “Yes” and the IC50 [2] was 2.51 nM.
With CCc1cc(O)c(F)cc1-c1ccc2c(-c3nc4c([nH]3)CN(C(C)C)[C@H](C(=O)N3CC(N(C)C)C3)C4)n[nH]c2c1 [Compound D-1, (S)-(3-(dimethylamino)azetidin-1-yl)(2-(6-(2-ethyl-5-fluoro-4-hydroxyphenyl)-1H-indazol-3-yl)-5-isopropyl-4,5,6,7-tetrahydro-3H-imidazo[4,5-c]pyridin-6-yl)methanone] the “binding site in co-crystal structure” value (JAK1) was “bind in the ATP binding site”.

Source: patent publication US10836763B2, “5 to 7 membered heterocyclic amides as JAK inhibitors” (priority 2018, dated 2020)
